Assays:
Format in all cases: in vivo
[1] = tested on: Green Peach Aphid (Myzus persicae); experiment: Green peach aphid spray test on bell pepper plants; conditions: 120 h, aphids on sprayed bell pepper plants, after 5 days, read-out: mortality in comparison with untreated controls
Description: B.6 Green Peach Aphid (Myzus persicae)
(§1) The active compounds were formulated in cyclohexanone as a 10,000 ppm solution supplied in tubes. The tubes were inserted into an automated electrostatic sprayer equipped with an atomizing nozzle and they served as stock solutions for which lower dilutions were made in 50% acetone:50% water (v/v). A nonionic surfactant (Kinetic®) was included in the solution at a volume of 0.01% (v/v).
Bell pepper plants at the first true-leaf stage were infested prior to treatment by placing heavily infested leaves from the main colony on top of the treatment plants. Aphids were allowed to transfer overnight to accomplish an infestation of 30-50 aphids per plant and the host leaves were removed. The infested plants were then sprayed by an automated electrostatic plant sprayer equipped with an atomizing spray nozzle. The plants were dried in the sprayer fume hood, removed, and then maintained in a growth room under fluorescent lighting in a 24-hr photoperiod at about 25° C. and about 20-40% relative humidity. Aphid mortality on the treated plants, relative to mortality on untreated control plants, was determined after 5 days.

[2] = tested on: Tobacco Budworm (Heliothis virescens); experiment: Tobacco budworm microtiter plate insect diet test; conditions: 120 h, egg and larval mortality, 5 days, read-out: mortality in comparison with untreated controls
Protocol: B.4 Tobacco Budworm (Heliothis virescens) I
For evaluating control of tobacco budworm (Heliothis virescens) the test unit consisted of 96-well-microtiter plates containing an insect diet and 15-25 H. virescens eggs.
The compounds were formulated using a solution containing 75% v/v water and 25% v/v DMSO. Different concentrations of formulated compounds were sprayed onto the insect diet at 10 μl, using a custom built micro atomizer, at two replications.
After application, microtiter plates were incubated at about 28±1° C. and about 80±5% relative humidity for 5 days. Egg and larval mortality was then visually assessed.

[3] = tested on: Southern Armyworm (Spodoptera eridiana); experiment: Southern armyworm foliar spray test on lima bean plants; conditions: 96 h, larvae on sprayed lima bean plants, 4 days after treatment, read-out: mortality in comparison with untreated controls
Protocol: B.2 Southern Armyworm (Spodoptera eridiana)
as §1
Lima bean plants (variety Sieva) were grown 2 plants to a pot and selected for treatment at the 1st true leaf stage. Test solutions were sprayed onto the foliage by an automated electrostatic plant sprayer equipped with an atomizing spray nozzle. The plants were dried in the sprayer fume hood and then removed from the sprayer. Each pot was placed into perforated plastic bags with a zip closure. About 10 to 11 armyworm larvae were placed into the bag and the bags zipped closed. Test plants were maintained in a growth room at about 25° C. and about 20-40% relative humidity for 4 days, avoiding direct exposure to fluorescent light (24 hour photoperiod) to prevent trapping of heat inside the bags. Mortality and reduced feeding were assessed 4 days after treatment, compared to untreated control plants.

[4] = tested on: Diamond Backmoth (Plutella xylostella); experiment: Diamond backmoth leaf-dip test on cabbage leaves; conditions: 3rd instar larvae on dipped cabbage leaves, 72 hours after treatment, read-out: mortality in comparison with untreated controls
Protocol: B.1 Diamond Backmoth (Plutella xylostella)
The active compound was dissolved at the desired concentration in a mixture of 1:1 (vol:vol) distilled water: acteon. Surfactant (Alkamuls® EL 620) was added at a rate of 0.1% (vol/vol). The test solution was prepared at the day of use.
Leaves of cabbage were dipped in test solution and air-dried. Treated leaves were placed in petri dishes lined with moist filter paper and inoculated with ten 3rd instar larvae. Mortality was recorded 72 hours after treatment. Feeding damages were also recorded using a scale of 0-100%.

[5] = tested on: Boll Weevil (Anthonomus grandis); experiment: Boll weevil microtiter plate insect diet test; conditions: 120 h, egg and larval mortality, 5 days, read-out: mortality in comparison with untreated controls
Protocol: B.3 Boll Weevil (Anthonomus grandis)
For evaluating control of boll weevil (Anthonomus grandis) the test unit consisted of 24-well-microtiter plates containing an insect diet and 20-30 A. grandis eggs.
The compounds were formulated using a solution containing 75% v/v water and 25% v/v DMSO. Different concentrations of formulated compounds were sprayed onto the insect diet at 20 μl, using a custom built micro atomizer, at two replications.
After application, microtiter plates were incubated at about 23±1° C. and about 50±5% relative humidity for 5 days. Egg and larval mortality was then visually assessed.

Cc1cc(Cl)cc(C(=O)NOCC(=O)N(C)C)c1NC(=O)c1ccc(C(F)(F)F)cc1-c1ncccc1Cl [compound 1-1, 5-chloro-2-[2-(3-chloro-pyridin-2-yl)-4-trifluoromethyl-benzoylamino]-N-dimethylcarbamoylmethoxy-3-methyl-benzamide]
mortality at 2500 ppm [1]: > 75% | mortality at 2500 ppm [2]: > 75% | mortality at 500 ppm [3]: ≥ 75% | mortality at 500 ppm [4]: ≥ 75% | mortality at 2500 ppm [5]: > 75%
